Article PMC6792352, “Limited Chemical Structural Diversity Found to Modulate Thyroid Hormone Receptor in the Tox21 Chemical Library” (Environmental Health Perspectives, 2019)
Structures can show the parent of a compound that is named as a salt. Positions of bridges follow the written chain, without caps; N, C: chain ends. Non-standard residues stand in square brackets, D forms with d. Residues, ends and D or L forms follow the SMILES beside them. hArg = N=C(N)NCCCC[C@H](N)C(=O)O; Mpa = O=C(O)CCS

Assay: in vitro
Conditions: rat, gh3-tre-luc cells

Row | Compound | CC50 at 24 h (AC50 (uM) modified / 1000) [µM] | also measured
1 | COc1cc2c3cc1Oc1cc(ccc1O)C[C@@H]1c4c(cc(OC)c(O)c4Oc4ccc(cc4)C[C@@H]3N(C)CC2)CC[N+]1(C)C [(+)-Tubocurarine chloride hydrochloride] | > 50 | –
2 | CCCOC(=O)C(C)O (stereo not shown) [Propanoic acid,2-hydroxy-,propylester] | > 90 | –
3 | Nn1cnnc1 [4-Amino-1,2,4-triazole] | > 90 | –
4 | Oc1cccc2ccccc12 [1-Naphthol] | > 90 | –
5 | COc1ccc(-c2ccc3cc(C(=O)O)ccc3c2)cc1[C@]12C[C@H]3C[C@H](C[C@H](C3)C1)C2 [Adapalene] | 1.88 | –
6 | C=C(C)[C@@H]1CC=C(C)CC1 [(S)-Limonene] | > 90 | –
7 | CNC(=O)ON=C(C)C(C)S(C)(=O)=O (stereo not shown) [Butoxycarboxim] | > 900 | –
8 | NC(=S)NNC(N)=S [2,5-Dithiobiurea] | > 90 | –
9 | CCCCCC1CCC(=O)O1 (stereo not shown) [gamma-Nonanolactone] | > 90 | –
10 | O=Cc1ccccc1O [Salicylaldehyde] | > 90 | –
11 | N[C@@H]1[C@H]2CN(c3nc4c(cc3F)c(=O)c(C(=O)O)cn4-c3ccc(F)cc3F)C[C@@H]12 [Trovafloxacin mesylate] | 20.9 | –
12 | Cc1ccccc1/N=N/c1ccc(/N=N/c2c(O)ccc3ccccc23)c(C)c1 [C.I. Solvent Red 24] | > 50 | –
13 | O=C(N[C@H]1CN2CCC1CC2)c1cc2ccoc2cn1 [PHA-00543613] | > 90 | –
14 | CSCC[C@H](N)C(=O)O [Methionine] | > 50 | –
15 | CCCCOC(=O)c1ccccc1C(=O)OCc1ccccc1 [Benzyl butyl phthalate] | > 90 | –
16 | CCOC(=O)c1cccnc1 [Ethyl nicotinate] | > 50 | –
17 | CC(Br)C(=O)O (stereo not shown) [2-Bromopropionic acid] | – | CC50 at 24 h (AC50 (uM) modified / 1000, Tox21_110001=Tox21_201417, viability, 1 nM T3 present, 24 h): > 90 µM
18 | N[C@@H](COP(=O)(O)O)C(=O)O [Dexfosfoserine] | > 50 | –
19 | Brc1nc2ccccc2s1 [2-Bromobenzothiazole] | > 90 | –
20 | CC1CCC(=O)C1=O (stereo not shown) [3-Methyl-1,2-cyclopentanedione] | > 100 | –
21 | CC(C)c1ccc(NC(=O)N(C)C)cc1 [Isoproturon] | > 90 | –
22 | CCCCCCCCSCCO [2-Hydroxyethyl octyl sulfide] | > 90 | –
23 | O=C(Nc1ccc([N+](=O)[O-])cc1)Nc1ccc([N+](=O)[O-])cc1 [4,4'-Dinitrodiphenylurea] | > 50 | –
24 | CC(=O)OCC(=O)[C@@]1(O)[C@H](OC(C)=O)C[C@H]2[C@@H]3CCC4=CC(=O)C=C[C@]4(C)[C@@]3(F)[C@@H](O)C[C@@]21C [Triamcinolone diacetate] | > 50 | –
25 | CN1CC(=O)NC1=N [Creatinine] | > 50 | –

Row | Compound | CC50 at 24 h (AC50 (uM) modified / 1000) [µM] | also measured
26 | COc1cc(OC)c(OC)cc1C=O [2,4,5-Trimethoxybenzaldehyde] | – | CC50 at 24 h (AC50 (uM) modified / 1000, Tox21_110001=Tox21_400070, viability, 1 nM T3 present, 24 h): > 90 µM
27 | OC[C@H]1O[C@@H](O[C@@H]2[C@@H](CO)OC(O)(CO)[C@H]2O)[C@H](O)[C@@H](O)[C@H]1O (mixture of isomers) [Lactulose] | > 50 | –
28 | CC1=CCCC(C)(C)C12CCC(C)O2 (stereo not shown) [Theaspirane] | > 90 | –
29 | CCCCN(CCCC)CCC(O)c1cc2c(Cl)cc(Cl)cc2c2cc(C(F)(F)F)ccc12 (stereo not shown) [Halofantrine hydrochloride] | > 20 | –
30 | O=c1c2ccccc2c(=O)c2c1cc(Cl)c1[nH]c3c([nH]c12)c(Cl)cc1c(=O)c2ccccc2c(=O)c13 [D&C Blue No. 9] | – | CC50 at 24 h (AC50 (uM) modified / 1000, Tox21_110001=Tox21_302231, viability, 1 nM T3 present, 24 h): > 90 µM
31 | CC(=O)c1cccnc1 [3-Acetylpyridine] | > 90 | –
32 | CC(C)=CCC/C(C)=C/CC/C(C)=C/CC/C(C)=C/CC1=C(C)C(=O)c2ccccc2C1=O [Menatetrenone] | > 50 | –
33 | CC(C)[C@H]1CC[C@H](C)C[C@@H]1O [(1S,2R,5S)-(+)-Menthol] | > 90 | –
34 | CC(C)(C)CC(C)(C)c1ccc(Nc2ccc(C(C)(C)CC(C)(C)C)cc2)cc1 [4,4'-bis(1,1,3,3-Tetramethylbutyl)diphenylamine] | > 5 | –
35 | O=C(Cn1ccnc1[N+](=O)[O-])NCc1ccccc1 [Benznidazole] | > 50 | –
36 | O=C1CCCC(=O)O1 [Glutaric anhydride] | > 90 | –
37 | CCCCCCCCCCCCOS(=O)(=O)O [Sodium dodecyl sulfate] | > 90 | –
38 | CN(C)C(=O)Cl [Dimethylcarbamoyl chloride] | – | CC50 at 24 h (AC50 (uM) modified / 1000, Tox21_110001=Tox21_201334, viability, 1 nM T3 present, 24 h): > 90 µM
39 | COc1ccc(N)c(C)c1 [4-Methoxy-2-methylaniline] | > 90 | –
40 | CC(=O)c1ccc(C)cc1 [p-Methylacetophenone] | > 90 | –
41 | CCCCCCCCCCCCCCCCSCC(COC)COP(=O)([O-])OCC[N+](C)(C)C (stereo not shown) [Ilmofosine] | 19.3 | –
42 | CC1(C)O[C@@H]2C[C@H]3[C@@H]4CCC5=CC(=O)CC[C@]5(C)[C@@]4(F)[C@@H](O)C[C@]3(C)[C@]2(C(=O)CCl)O1 [Halcinonide] | > 20 | –
43 | CCc1nccnc1CC [2,3-Diethylpyrazine] | > 30 | –
44 | CCOC(=O)[C@H](CCc1ccccc1)N[C@@H](C)C(=O)N1CCC[C@H]1C(=O)O [Enalapril] | > 50 | –
45 | Nc1cc(N)cc(C(=O)O)c1 [3,5-Diaminobenzoic acid] | > 90 | –
46 | COc1cc(C(=O)N2CCOCC2)cc(OC)c1OC [Trimetozine] | > 50 | –
47 | O=c1oc2ccccc2c(O)c1C1CCCc2ccccc21 (stereo not shown) [Coumatetralyl] | > 90 | –
48 | CCC=CCCOC(=O)c1ccccc1O (stereo in doubt) [(3Z)-Hex-3-en-1-yl salicylate] | > 90 | –
49 | CC[C@@H]1C(=O)OC[C@@H]1Cc1cncn1C [Pilocarpine] | > 50 | –
50 | CCC(C)(C)c1ccc(O)cc1 [4-(2-Methylbutan-2-yl)phenol] | > 90 | –

Row | Compound | CC50 at 24 h (AC50 (uM) modified / 1000) [µM] | also measured
51 | C(CCOCC1CO1)COCC1CO1 (stereo not shown) [1,4-Butanediol diglycidyl ether] | > 90 | –
52 | CC(=O)OC[C@H]1O[C@@H](O[C@H]2[C@H](O)[C@@H](OC(=O)c3ccccc3C(=O)O)[C@H](O)O[C@@H]2COC(C)=O)[C@H](O)[C@@H](OC(=O)c2ccccc2C(=O)O)[C@@H]1O [Cellulose acetate phthalate] | > 50 | –
53 | N=C(N)NCCCC[C@@H]1NC(=O)CCSSC[C@@H](C(N)=O)NC(=O)[C@@H]2CCCN2C(=O)[C@H](Cc2c[nH]c3ccccc23)NC(=O)[C@H](CC(=O)O)NC(=O)CNC1=O [Eptifibatide] ([Mpa][hArg]GDWPC-NH2; disulfide 1-7) | > 50 | –
54 | CC(C)OC(=O)Nc1ccc2[nH]c(-c3cscn3)nc2c1 [Cambendazole] | 4.4 | –
55 | CCc1nn(C)c(C(=O)NCc2ccc(C(C)(C)C)cc2)c1Cl [Tebufenpyrad] | 53.4 | –
56 | ClC/C=C/CCl [(2E)-1,4-Dichlorobut-2-ene] | > 90 | –
57 | CCCC1([C@H](O)C/C=C/[C@H]2[C@H](O)CC(=O)[C@@H]2CCCCCCC(=O)OC)CCC1 [(R)-Butaprost] | 32.9 | –
58 | N=C(N)NCCCCCCC(=O)NC(O)C(=O)NCCCCNCCCN (stereo not shown) [Gusperimus trihydrochloride] | > 50 | –
59 | C#C[C@]1(O)CC[C@H]2[C@@H]3CCC4=Cc5oncc5C[C@]4(C)[C@H]3CC[C@@]21C [Danazol] | 57.4 | –
60 | O=C1C=CC(=O)N1c1ccc(Cc2ccc(N3C(=O)C=CC3=O)cc2)cc1 [Bismaleimide] | 6.41 | –
61 | CC(C)c1ccc(C(=O)NC(=N)N)cc1S(C)(=O)=O [Cariporide mesylate] | > 70 | –
62 | O=C(O)CONC(=O)c1ccccc1 [Benzadox] | > 90 | –
63 | Cc1cccnc1 [3-Methylpyridine] | > 90 | –
64 | Cc1ccc2nc(N)[nH]c(=O)c2c1Sc1ccncc1 [Nolatrexed dihydrochloride] | > 50 | –
65 | Nc1ccccc1[N+](=O)[O-] [2-Nitroaniline] | > 90 | –
66 | CN1C(=O)CC(=O)N(c2ccccc2)c2cc(Cl)ccc21 [Clobazam] | – | CC50 at 24 h (AC50 (uM) modified / 1000, Tox21_110001=Tox21_112608, viability, 1 nM T3 present, 24 h): > 50 µM
67 | CCCCC(=O)O[C@H]1CC[C@H]2[C@@H]3CCc4cc(O)ccc4[C@H]3CC[C@]12C [Estradiol valerate] | 41.5 | –
68 | Oc1cc(O)c2c(c1)O[C@H](c1ccc(O)c(O)c1)[C@H](O)C2 [(-)-Epicatechin] | > 50 | –
69 | CC(C)(C)c1cc(/C=C2\SC(N)=NC2=O)cc(C(C)(C)C)c1O [Darbufelone mesylate] | 23.6 | –
70 | CCOP(=O)(O)C(N)=O [Fosamine ammonium] | – | CC50 at 24 h (AC50 (uM) modified / 1000, Tox21_110001=Tox21_301917, viability, 1 nM T3 present, 24 h): > 90 µM
71 | CC(C)CCOCc1ccccc1 [Benzyl 3-methylbutyl ether] | > 90 | –
72 | COC(F)(F)C(Cl)Cl [Methoxyflurane] | > 50 | –
73 | CCCCCCCC/C=C\CCCCCCCC(=O)OC[C@@H](O)[C@H]1OC[C@H](O)[C@H]1O [Sorbitan, mono-(9Z)-9-octadecenoate] | > 50 | –
